According to patent publication US20230159489A1, “PHD INHIBITOR COMPOUNDS, COMPOSITIONS, AND USE” (Akebia Therapeutics, Inc., priority 2020, published 2023):
Where a name gives a salt, the structure may show the parent alone.

Experiments:
[1] = molecular target: T1, full-length human PHD1 (Homo sapiens, UniProt Q96KS0); experiment: TR-FRET assay, enzymatic IC50 against PHD1; format: biochemical; as to IC50: 15 nM PHD1
T1 construct: FLAG (N); purchased Active Motif 81064; host or cells: baculovirus expression system
From the text: PHD1 was expressed in a baculovirus expression system as the full-length protein (NCBI accession number NP_542770.2) with an N-terminal FLAG tag (molecular weight 44.9 kDa).

[2] = molecular target: full-length human PHD2 (Homo sapiens, UniProt Q9GZT9); experiment: TR-FRET assay, enzymatic IC50 against PHD2
full-length human PHD2, sequence (Q9GZT9 whole entry): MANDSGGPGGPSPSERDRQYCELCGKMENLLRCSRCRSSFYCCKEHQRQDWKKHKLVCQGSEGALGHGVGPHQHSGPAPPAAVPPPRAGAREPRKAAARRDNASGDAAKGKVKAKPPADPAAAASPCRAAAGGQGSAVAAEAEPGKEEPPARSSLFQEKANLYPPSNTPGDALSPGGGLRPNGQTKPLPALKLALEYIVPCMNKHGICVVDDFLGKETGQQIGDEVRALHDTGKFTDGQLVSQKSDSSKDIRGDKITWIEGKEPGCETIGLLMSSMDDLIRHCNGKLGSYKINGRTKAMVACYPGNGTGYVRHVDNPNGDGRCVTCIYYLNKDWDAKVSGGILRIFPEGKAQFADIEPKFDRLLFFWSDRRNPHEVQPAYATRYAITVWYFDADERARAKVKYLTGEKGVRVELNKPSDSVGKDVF

T1 sequence (Q96KS0 whole entry): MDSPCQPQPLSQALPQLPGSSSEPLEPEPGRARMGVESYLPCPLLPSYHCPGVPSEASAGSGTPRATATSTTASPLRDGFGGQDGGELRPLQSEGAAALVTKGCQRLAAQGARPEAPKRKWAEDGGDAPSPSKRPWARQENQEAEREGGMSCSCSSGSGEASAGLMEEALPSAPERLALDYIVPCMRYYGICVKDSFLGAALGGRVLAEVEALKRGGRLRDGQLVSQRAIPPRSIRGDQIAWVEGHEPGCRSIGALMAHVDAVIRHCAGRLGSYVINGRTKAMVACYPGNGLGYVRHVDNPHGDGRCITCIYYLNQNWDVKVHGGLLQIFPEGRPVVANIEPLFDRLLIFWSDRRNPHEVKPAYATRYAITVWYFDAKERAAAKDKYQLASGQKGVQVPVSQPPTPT

Row | Structure (SMILES) | IC50 [1] [µM] | IC50 [2] [µM] | Km ([1]; read-out: Km of 2-OG for PHD1) [µM]
1 | O=C(O)CCC(=O)C(=O)O [Compound 2-OG, 2-oxoglutarate, reference compound] | – | – | 0.0127
2 | Cc1nn(-c2ccc(P(C)(C)=O)cn2)c(O)c1-c1ccc(C#N)cc1 [Compound 14, 4-(1-(5-(dimethylphosphoryl)pyridin-2-yl)-5-hydroxy-3-methyl-1H-pyrazol-4-yl)benzonitrile] | < 0.1 | < 0.1 | –
3 | Cc1nn(-c2ccc(S(C)(=N)=O)cn2)c(O)c1-c1ccc(Cl)cc1 (centres unmarked) [Compound 18, (6-(4-(4-chlorophenyl)-5-hydroxy-3-methyl-1H-pyrazol-1-yl)pyridin-3-yl)(imino)(methyl)-λ^6-sulfanone] | < 0.1 | < 0.1 | –
4 | Cc1nn(-c2ccc(S(=N)(=O)c3ccccc3)cn2)c(O)c1-c1ccc(C#N)cc1 (centres unmarked) [Compound 20, 4-(5-hydroxy-3-methyl-1-(5-(phenylsulfonimidoyl)pyridin-2-yl)-1H-pyrazol-4-yl)benzonitrile] | < 0.1 | < 0.1 | –
5 | Cc1nn(-c2ccc(C(=O)NS(C)(=O)=O)cn2)c(O)c1-c1ccc(Cl)cc1 [Compound 28, 6-(4-(4-chlorophenyl)-5-hydroxy-3-methyl-1H-pyrazol-1-yl)-N-(methylsulfonyl)nicotinamide] | < 0.1 | 0.1 to 1 | –
6 | Cc1nn(-c2ccc(NC(=O)N3CCOCC3)cn2)c(O)c1-c1ccc(C#N)cc1 [Compound 31, N-(6-(4-(4-cyanophenyl)-5-hydroxy-3-methyl-1H-pyrazol-1-yl)pyridin-3-yl)morpholine-4-carboxamide] | < 0.1 | 0.1 to 1 | –
7 | Cc1nn(-c2ccc(NC(=O)N3CCNCC3)cn2)c(O)c1-c1ccc(C#N)cc1 [Compound 32, N-(6-(4-(4-cyanophenyl)-5-hydroxy-3-methyl-1H-pyrazol-1-yl)pyridin-3-yl)piperazine-1-carboxamide hydrochloride] | 0.1 to 1 | 0.1 to 1 | –
8 | Cc1cc(-n2nc(C)c(-c3ccc(C#N)cc3)c2O)ncc1N1CCCC1=O [Compound 37, 4-(5-hydroxy-3-methyl-1-(4-methyl-5-(2-oxopyrrolidin-1-yl)pyridin-2-yl)-1H-pyrazol-4-yl)benzonitrile] | < 0.1 | < 0.1 | –
9 | Cc1cc(-n2nc(C)c(-c3ccc(C#N)cc3)c2O)ncc1S(N)(=O)=O [Compound 38, 6-(4-(4-cyanophenyl)-5-hydroxy-3-methyl-1H-pyrazol-1-yl)-4-methylpyridine-3-sulfonamide] | < 0.1 | < 0.1 | –
10 | Cc1cc(-n2nc(C)c(-c3ccc(C#N)cc3)c2O)ncc1NS(C)(=O)=O [Compound 39, N-(6-(4-(4-cyanophenyl)-5-hydroxy-3-methyl-1H-pyrazol-1-yl)-4-methylpyridin-3-yl)methanesulfonamide] | < 0.1 | < 0.1 | –
11 | Cc1cc(-n2nc(C)c(-c3ccc(C#N)cc3)c2O)ncc1S(C)(=N)=O (centres unmarked) [Compound 40, 4-(5-hydroxy-3-methyl-1-(4-methyl-5-(S-methylsulfonimidoyl)pyridin-2-yl)-1H-pyrazol-4-yl)benzonitrile] | < 0.1 | < 0.1 | –
12 | Cc1nn(-c2ccc(C3CN(S(C)(=O)=O)C3)cn2)c(O)c1-c1ccc(C#N)cc1 [Compound 43, 4-(5-hydroxy-3-methyl-1-(5-(1-(methylsulfonyl)azetidin-3-yl)pyridin-2-yl)-1H-pyrazol-4-yl)benzonitrile] | < 0.1 | < 0.1 | –
13 | Cc1nc(-n2nc(C)c(-c3ccc(C#N)cc3)c2O)ccc1S(C)(=O)=O [Compound 45, 4-(5-hydroxy-3-methyl-1-(6-methyl-5-(methylsulfonyl)pyridin-2-yl)-1H-pyrazol-4-yl)benzonitrile] | 1 to 10 | 1 to 10 | –
14 | Cc1cc(-n2nc(C)c(-c3ccc(C#N)cc3)c2O)ncc1S(C)(=O)=O [Compound 46, 4-(5-hydroxy-3-methyl-1-(4-methyl-5-(methylsulfonyl)pyridin-2-yl)-1H-pyrazol-4-yl)benzonitrile] | < 0.1 | < 0.1 | –
15 | Cc1nn(-c2ccc(CC(=O)O)cn2)c(O)c1-c1ccc(C#N)cc1 [Compound 47, 2-(6-(4-(4-cyanophenyl)-5-hydroxy-3-methyl-1H-pyrazol-1-yl)pyridin-3-yl)acetic acid] | < 0.1 | < 0.1 | –
16 | Cc1cc(-c2c(C)nn(-c3ccc(S(C)(=O)=O)cn3)c2O)ccc1O [Compound 48, 4-(4-hydroxy-3-methylphenyl)-3-methyl-1-(5-(methylsulfonyl)pyridin-2-yl)-1H-pyrazol-5-ol] | 0.1 to 1 | 0.1 to 1 | –
17 | COc1ccc(-c2c(C)nn(-c3ccc(S(C)(=O)=O)cn3)c2O)cc1C [Compound 49, 4-(4-methoxy-3-methylphenyl)-3-methyl-1-(5-(methylsulfonyl)pyridin-2-yl)-1H-pyrazol-5-ol] | 0.1 to 1 | 0.1 to 1 | –
18 | Cc1nn(-c2ccc(-c3nn[nH]n3)cn2)c(O)c1-c1ccc(C#N)cc1 [Compound 50, 4-(1-(5-(2H-tetrazol-5-yl)pyridin-2-yl)-5-hydroxy-3-methyl-1H-pyrazol-4-yl)benzonitrile] | < 0.1 | < 0.1 | –
19 | Cc1nn(-c2ccc(-c3cn(C)nn3)cn2)c(O)c1-c1ccc(C#N)cc1 [Compound 54, 4-(5-hydroxy-3-methyl-1-(5-(1-methyl-1H-1,2,3-triazol-4-yl)pyridin-2-yl)-1H-pyrazol-4-yl)benzonitrile] | < 0.1 | – | –
20 | Cc1cc(-n2nc(C)c(-c3ccc(C#N)cc3)c2O)ncc1S(=O)(=O)N1CCCC1 [Compound 72, 4-(5-hydroxy-3-methyl-1-(4-methyl-5-(pyrrolidin-1-ylsulfonyl)pyridin-2-yl)-1H-pyrazol-4-yl)benzonitrile] | < 0.1 | – | –

More lines, main results first:

Row | IC50 [1] [µM] | IC50 [2] [µM] | Structure (SMILES) | Km ([1]; read-out: Km of 2-OG for PHD1) [µM]
21 | < 0.1 | < 0.1 | Cc1nn(-c2ccc([S@@](C)(=N)=O)cn2)c(O)c1-c1ccc(C#N)cc1 [Compound 16, (S)-4-(5-hydroxy-3-methyl-1-(5-(S-methylsulfonimidoyl)pyridin-2-yl)-1H-pyrazol-4-yl)benzonitrile] | –
22 | < 0.1 | < 0.1 | Cc1nn(-c2ccc([S@](C)(=N)=O)cn2)c(O)c1-c1ccc(C#N)cc1 [Compound 17, (R)-4-(5-hydroxy-3-methyl-1-(5-(S-methylsulfonimidoyl)pyridin-2-yl)-1H-pyrazol-4-yl)benzonitrile] | –
23 | < 0.1 | < 0.1 | Cc1nn(-c2ccc(S(=N)(=O)C(C)C)cn2)c(O)c1-c1ccc(C#N)cc1 (centres unmarked) [Compound 19, 4-(5-hydroxy-3-methyl-1-(5-(propan-2-ylsulfonimidoyl)pyridin-2-yl)-1H-pyrazol-4-yl)benzonitrile] | –
24 | < 0.1 | < 0.1 | CCS(=N)(=O)c1ccc(-n2nc(C)c(-c3ccc(C#N)cc3)c2O)nc1 (centres unmarked) [Compound 21, 4-(5-hydroxy-3-methyl-1-(5-(S-ethylsulfonimidoyl)pyridin-2-yl)-1H-pyrazol-4-yl)benzonitrile] | –
25 | < 0.1 | < 0.1 | Cc1nn(-c2ccc([S@+](C)[O-])cn2)c(O)c1-c1ccc(C#N)cc1 [Compound 22, (S)-4-(5-hydroxy-3-methyl-1-(5-(methylsulfinyl)pyridin-2-yl)-1H-pyrazol-4-yl)benzonitrile] | –
26 | < 0.1 | < 0.1 | Cc1nn(-c2ccc([S@@+](C)[O-])cn2)c(O)c1-c1ccc(C#N)cc1 [Compound 23, (R)-4-(5-hydroxy-3-methyl-1-(5-(methylsulfinyl)pyridin-2-yl)-1H-pyrazol-4-yl)benzonitrile] | –
27 | < 0.1 | < 0.1 | Cc1nn(-c2ccc(S(=N)(N)=O)cn2)c(O)c1-c1ccc(C#N)cc1 (centres unmarked) [Compound 24, 6-(4-(4-cyanophenyl)-5-hydroxy-3-methyl-TH-pyrazol-1-yl)pyridine-3-sulfonimidamide] | –
28 | < 0.1 | < 0.1 | Cc1nn(-c2ccc(S(=N)(=O)N(C)C)cn2)c(O)c1-c1ccc(C#N)cc1 (centres unmarked) [Compound 25, 6-(4-(4-cyanophenyl)-5-hydroxy-3-methyl-1H-pyrazol-1-yl)-N,N-dimethylpyridine-3-sulfonimidamide] | –
29 | < 0.1 | < 0.1 | CNS(=N)(=O)c1ccc(-n2nc(C)c(-c3ccc(C#N)cc3)c2O)nc1 (centres unmarked) [Compound 26, 6-(4-(4-cyanophenyl)-5-hydroxy-3-methyl-1H-pyrazol-1-yl)-N-methylpyridine-3-sulfonimidamide] | –
30 | < 0.1 | < 0.1 | CC(=O)NS(=O)(=O)c1ccc(-n2nc(C)c(-c3ccc(C#N)cc3)c2O)nc1 [Compound 29, N-((6-(4-(4-cyanophenyl)-5-hydroxy-3-methyl-1H-pyrazol-1-yl)pyridin-3-yl)sulfonyl)acetamide] | –
31 | < 0.1 | < 0.1 | CC(=O)NS(=O)(=O)c1ccc(-n2nc(C)c(-c3ccc(Cl)cc3)c2O)nc1 [Compound 30, N-((6-(4-(4-chlorophenyl)-5-hydroxy-3-methyl-1H-pyrazol-1-yl)pyridin-3-yl)sulfonyl)acetamide] | –
32 | < 0.1 | < 0.1 | Cc1nn(-c2ccc(S(=N)(=O)C3CC3)cn2)c(O)c1-c1ccc(C#N)cc1 (centres unmarked) [Compound 33, 4-(1-(5-(cyclopropanesulfonimidoyl)pyridin-2-yl)-5-hydroxy-3-methyl-1H-pyrazol-4-yl)benzonitrile] | –
33 | < 0.1 | < 0.1 | Cc1nn(-c2ccc([S@@](=N)(=O)C(C)C)cn2)c(O)c1-c1ccc(C#N)cc1 [Compound 41, (S)-4-(5-hydroxy-3-methyl-1-(5-(S-isopropylsulfonimidoyl)pyridin-2-yl)-1H-pyrazol-4-yl)benzonitrile] | –
34 | < 0.1 | < 0.1 | Cc1nn(-c2ccc([S@](=N)(=O)C(C)C)cn2)c(O)c1-c1ccc(C#N)cc1 [Compound 42, (R)-4-(5-hydroxy-3-methyl-1-(5-(S-isopropylsulfonimidoyl)pyridin-2-yl)-1H-pyrazol-4-yl)benzonitrile] | –
